Results taken from US7530461B2, “Esters of 5-aminolevulinic acid as photosensitizing agents in photochemotherapy” (PhotoCure ASA, priority 1995, dated 2009).
“Also recorded” adds a separate entry of the source. Structures can show the parent of a compound that is named as a salt.

How the values were obtained:
normal skin of nude mice [1] = test: Fluorescence microscopy of mouse skin biopsies after topical application; type: in vivo; settings: 1 h after topical application
Procedure: (§1) Treatment procedure. One of the creams was painted on the normal skin at right flank region of each mouse, and covered by a semi-permeable dressing (3M, St Paul, Minn., USA) for various time intervals (from 0.25 to 24 h) before fluorescence measurements in situ or being biopsied for microscopic fluorescence imaging. About 0.2 g cream was applied to an approximate 2.25 cm^2 area of the skin. In the case of i.p. injection the mice were given ALA or its methylester at a dose of 150 mg/kg. At least three mice were used for each condition.
Fluorescence microscopy. After the creams were topically applied to the skin of mice for various times (as indicated above), the skin was biopsied and the frozen tissue sections were cut with a cryostat to a thickness of 8 μm. The fluorescence microscopy was carried out using an Axioplan microscope (Zeiss, Germany) with a 100 W mercury lamp. The fluorescence images were recorded by a light-sensitive thermoelectrically cooled charge coupled device (CCD) camera (resolution: 385×578 pixels with a dynamic range of 16 bits per pixel)(Astromed CCD 3200, Cambridge, UK) and hard copies on a video printer (Sony multiscan video printer UP-930). The filter combination used for detection of porphyrin fluorescence consisted of 390-440 nm excitation filter, a 460 nm beam splitter and a >600 nm emission filter.
II. […] The fluorescence intensity of the porphyrins increased with the time after the application.

[2] = test system: normal skin of nu/nu nude mice; test: Protoporphyrin IX production in the skin of mice by CCD microscopy of biopsies; type: in vivo; settings: 20% w/w cream; for time after topical application at which conversion into protoporphyrin IX (PpIX) is seen: normal skin of nu/nu nude mice; for time of maximum PpIX fluorescence after application: topical, 6 hours was the latest time point studied
Procedure: A commercial oil-in-water cream containing (20% w/w) one of the chemicals (free ALA, ALA methylester, ALA ethylester and ALA propylester) (see Example 1) was topically applied to the normal skin of nu/nu nude mice for 0.5, 1, 3 and 6 hours, then biopsied and evaluated by means of microscopic fluorescence photometry incorporating a light-sensitive thermol-electrically cooled charge coupled device (CCD) camera. […] The fluorescence intensity of PpIX in the skin increased with the time of the application and the maximum amounts of the fluorescence were seen about 6 hours (the latest time point studied) after the application in all cases.

normal skin of nude mice [3] = test: In situ measurement of PpIX fluorescence in the skin of mice by an optical-fiber-based system; type: in vivo
[4] = test system: BCC lesions and surrounding normal skin; test: PpIX production in human BCC and surrounding normal skin by CCD microscopy of biopsies; type: in vivo; settings: for distribution of PpIX fluorescence from top to bottom of BCC lesions: patient
Procedure: […] After removal of dressings and cream in vivo fluorescence was measured at the surface of tumor tissue and adjacent normal skin by means of a spectrofluorometer. Punch biopsies of the same areas were removed and samples were immediately immersed in liquid nitrogen. The tissue sections were cut with a cryostat microtome to a thickness of 8 μm. The localization pattern of the porphyrin fluorescence in the tissue sections was directly observed by means of fluorescence microscopy. The same frozen sections were subsequently stained with routine H&E staining for histological identification.
The same sections were subsequently stained with routine H&E staining for histological identification. Fluorescence microscopy was carried out with an Axioplan microscope (Zeiss, Germany). Fluorescence images and quantitative measurements were performed by a light-sensitive thermol-electrically cooled charge coupled device (CCD) camera (Astromed CCD 3200, Cambridge, UK) and an image processing unit (Astromed/Visilog, PC 486DX2 66 MHz VL). The main purpose for such quantitative measurements is to determine the exact penetration of ALA-induced porphyrins from tissue surface to the bottom layers of cancer lesions. The results are shown in FIGS. 8 and 9 in which the fluorescence intensity is expressed as a function of depth of cancer lesion.
The tests were performed as described in Example 11.
Each of the following figures show both (A) fluorescence images of either the bottom layer of BCC lesions or of the surrounding normal skin. Curves indicating the fluorescence intensity as a function of depth of the BCC lesions or of the normal skin are also shown (B).

[5] = test system: BCC lesions and adjacent normal skin; test: Control one week after treatment (cream and light irradiation) of BCC patient; type: in vivo, human
[6] = test system: BCC lesions and adjacent normal skin; test: In vivo surface fluorescence of tumor tissue and adjacent normal skin by spectrofluorometer; set-up: species or system human; settings: after 24 hours, surface measurement
Procedure: In a person presenting multiple ulcero-nodular BCCs lesions were exposed to commercial oil-in-water creams containing either ALA alone (20 k w/w) or ALA methyl ester (20% w/w) (as described in Example 7) covered by a semi-permeable dressing for 24 hours. After removal of dressings and cream in vivo fluorescence was measured at the surface of tumor tissue and adjacent normal skin by means of a spectrofluorometer. Punch biopsies of the same areas were removed and samples were immediately immersed in liquid nitrogen. The tissue sections were cut with a cryostat microtome to a thickness of 8 μm. The localization pattern of the porphyrin fluorescence in the tissue sections was directly observed by means of fluorescence microscopy. The same frozen sections were subsequently stained with routine H&E staining for histological identification.

[7] = test system: basal cell carcinoma (BCC) lesions and surrounding normal skin; test: PpIX fluorescence in human BCC and surrounding normal skin by optical-fiber based system; type: in vivo
Procedure: The PpIX fluorescence in the BCC lesions and surrounding normal skin of human patients was measured in situ by optical-fiber based system after topical application of 20% free ALA and its derivatives for various time intervals.
The PpIX fluorescence ratios between BCC lesions and surrounding normal skin after topical application of ALA or its esters (20% for 4 hours), was examined using methods described in previous examples.

[8] = test system: WiDr human colonic carcinoma; test: PDT effect on tumor growth in WiDr human colonic carcinoma-transplanted nude mice; type: in vivo; settings: with DF and DMSO
Procedure: Nude mice were transplanted with WiDr human colonic carcinoma cells by subcutaneous injection into the right flank region. […] The responses of the treated tumors were evaluated as tumor regression/regrowth time. When the tumors reached a volume 5 times that of the volume on the day of light irradiation, the mice were killed. (Bars: standard error of mean (SEM) based on 3-5 individual animals in each group).

normal skin of nude mice [9] = test: In situ measurement of PpIX fluorescence in the skin of mice by an optical-fiber-based system; type: in vivo; settings: for PpIX fluorescence in normal mouse skin after cream containing the agent alone: without ALA methylester
Procedure: Chemicals. 5-aminolevulinic acid (ALA) methyl-, ethyl- and propyl-esters (H2N—CH2COOCH2—CH2COO—R; R can be CH3, CH2—CH2—CH3) were prepared by Norsk Hydro Research Center (Porsgrunn, Norway) as described in Examples 1 to 3. Free ALA hydrochloride and desferrioxamine mesylate (DF) were purchased from Sigma Chemical Company (St. Louis, Mo., USA). Dimethyl sulphoxide (DMSO) was obtained from Janssen Chimica (Geel, Belgium). Commercial oil-water creams (Unguentum Merck, Darmstadt, Germany) containing 20% one of the ALA ester derivatives (w/w), 20% free ALA, 20% ALA methylester plus 5% DF, 20% ALA methylester plus 20% DMSO, or 20% ALA methylester plus 5% DF and 20% DMSO were freshly prepared prior to use. All creams were made by the Pharmacy at the Norwegian Radium Hospital. For intraperitoneal injection, ALA and its methylester were freshly dissolved in saline. All other chemicals used were of the highest purity commercially available.
Animals. Female Balb/c nu/nu athymic nude mice were obtained from the Animal Laboratory at the Norwegian Radium Hospital and kept under specific-pathogen-free conditions. At the start of the experiments the mice were 6-7 weeks old weighing 18-24 g. Three mice were housed per cage with autoclaved covers in a dark room during the experiments.
as §1
Fluorescence spectroscopic measurements in situ. A perkin Elmer LS-50 fluorescence spectrometer equipped with a red-sensitive photomultiplier (Hamamatsu R 928) was used. This instrument has a pulsed Xenon arc light source and phase sensitive detection, such that fluorescence can be readily measured. Part of the excitation beam (set at 408 nm for fluorescence measurements) was reflected into a 600 μm core multimodus optical quartz fiber (No. 3501 393, Dornier Medizintechnik, GmbH, Germering, Germany) by means of a mirror for application onto the subject through a hand held probe. Emission in the region of 550-750 nm was measured via emission fibres collecting information through the probe.
I. The effect of DF and/or DMSO on the build up of fluorescence in the normal skin of mice in situ was ascertained various times after topical administration of ALA-methylester. Methods were performed as described in Example 9.

[10] = test system: basal cell carcinomas (BCCs); test: Topical ALA-based PDT of patients with basal cell carcinomas; type: in vivo, human
[11] = intraperitoneal injection, 150 mg/kg
[12] = topical application for 4.5 hours
[13] = topical application for 24 hours

In the case of `CCOC(=O)CCC(=O)CN.Cl` [ALA ethylester, ethyl 5-aminolevulinate hydrochloride], the “localization of porphyrin fluorescence in mouse skin” value (shortened to “localization … in mouse skin”) (normal skin of nude mice [1]) was “fluorescence in the epidermis (Ep), epithelial hair follicles and sebaceous gland (arrows), but not in the dermis (De)”, the “time after topical application at which conversion into protoporphyrin IX (PpIX) is seen” value (“time after topical application … (PpIX) is seen” for short) [2] was 0.5 h and the “time of maximum PpIX fluorescence after application” value (“time of maximum PpIX fluorescence” below) [2] was “about 6 hours”.

With `COC(=O)CCC(=O)CN.Cl` [ALA methylester, methyl 5-aminolevulinate hydrochloride] the “decrease of skin fluorescence compared with free ALA” value (normal skin of nude mice [3]; [11]) was “the fluorescence decreased faster in the case of the ester than in the case of the free ALA”, the “time at which PpIX fluorescence disappeared post injection” value (normal skin of nude mice [3]; [11]) was no more than 10 h and the “time at which PpIX fluorescence in the skin was built up after injection” value (normal skin of nude mice [3]; [11]) was 15 min. For the same compound, the “time of peak PpIX fluorescence in the skin after injection” value (normal skin of nude mice [3]; [11]) was “around 4 hours”, the “PpIX fluorescence in the surrounding normal skin” value ([4]; 20% w/w cream, 24 hours) was “no PpIX fluorescence was seen in the surrounding normal skin” and the “distribution of PpIX fluorescence from top to bottom of BCC lesions” value ([4]; 20% w/w cream, 24 hours) was “homogeneous distribution of PpIX fluorescence”. The “distribution of porphyrin fluorescence in the bottom layer of BCC” value [4, 12] was “homogenous distribution”, the “fluorescence intensity ratio between BCC and normal skin” value [4, 12] was “about 2” and the “porphyrin fluorescence/production in BCC, ALA methyl ester versus free ALA and 20% DMSO” value [4, 12] was “higher than that induced by free ALA and 20% DMSO”. For the same compound, the “distribution of porphyrin fluorescence in the bottom layer of BCC and surrounding normal skin” value [4, 13] was “uniform distribution”, the “fluorescence intensity ratio between BCC and normal skin” value [4, 13] was “about 2” and the “porphyrin fluorescence/production in BCC, ALA methyl ester versus free ALA alone” value [4, 13] was “almost twice as high”. For the same compound, the “localization … in mouse skin” value (normal skin of nude mice [1]) was “fluorescence in the epidermis (Ep), epithelial hair follicles and sebaceous gland (arrows), but not in the dermis (De)”, the “erythema in adjacent normal skin exposed to cream and light irradiation” value [5] was “only moderate erythema” and the “tumor response in treatment fields” value [5] was “central necrotic area corresponding to the tumor”. The “in vivo fluorescence intensity in tumors compared to ALA” value [6] was “at least doubled fluorescence intensity”, the “increase of in vivo fluorescence in corresponding normal tissues compared to ALA” value [6] was “about 50%” and the “time after topical application … (PpIX) is seen” value [2] was 0.5 h. For the same compound, the “time of maximum PpIX fluorescence” value [2] was “about 6 hours”, the “PpIX fluorescence ratios between BCC lesions and surrounding normal skin (selectivity) compared with free ALA” value ([7]; 20% for 4 hours, topical) was “more selectively induce PpIX in BCC lesions than free ALA” and the “PpIX build-up, amount and localization in BCC lesions compared to free ALA” value ([7]; 20% topical, various time intervals, human patients) was “built up faster, produced more and localized more selectively in the BCC lesions”. For the same compound, the “slowing of tumor regrowth compared with ALA” value [8] was “more effective than ALA in slowing tumor regrowth”.

With `CCCOC(=O)CCC(=O)CN.Cl` [ALA propylester, n-propyl 5-aminolevulinate hydrochloride] the “localization … in mouse skin” value (normal skin of nude mice [1]) was “fluorescence in the epidermis (Ep), epithelial hair follicles and sebaceous gland (arrows), but not in the dermis (De)”, the “time after topical application … (PpIX) is seen” value [2] was 0.5 h and the “time of maximum PpIX fluorescence” value [2] was “about 6 hours”.

In the case of `NCC(=O)CCC(=O)O` [ALA, 5-aminolevulinic acid], the “PpIX fluorescence in other areas of the skin and internal organs (ear, dermis, muscle, brain, liver)” value (normal skin of nude mice [3]; 14 hours after topical application, listed as free ALA) was “a strong fluorescence was also seen in the ear as well as in the other areas of the skin; also recorded: a strong fluorescence of free ALA-induced porphyrins was found in regions of the skin outside the area where the cream was topically applied”, the “time after topical application at which PpIX fluorescence was built up” value (normal skin of nude mice [9]; 20% cream, normal skin of nude mice) was 1.5 h and the “distribution of PpIX fluorescence from top to bottom of BCC lesions” value ([4]; 20% w/w cream, 24 hours) was “homogeneous distribution of PpIX fluorescence”. For the same compound, the “distribution of porphyrin fluorescence in the bottom layer of BCC and surrounding normal skin” value [4, 13] was “homogenous distribution”, the “fluorescence intensity ratio between BCC and normal skin” value [4, 13] was “about 1” and the “porphyrin fluorescence/production in BCC, ALA methyl ester versus free ALA alone” value [4, 13] was “less than that in the case of ALA methyl ester”. For the same compound, the “localization … in mouse skin” value (normal skin of nude mice [1]) was “fluorescence in the epidermis (Ep), epithelial hair follicles and sebaceous gland (arrows), but not in the dermis (De)”, the “erythema in adjacent normal skin exposed to cream and light irradiation” value [5] was “marked erythema” and the “tumor response in treatment fields” value [5] was “central necrotic area corresponding to the tumor”. For the same compound, the “complete response rate of nodular BCCs” value [10] was “low complete response rate”, the “superficial BCCs showing complete regression” value ([10]; past five years) was “more than 90%” and the “time after topical application … (PpIX) is seen” value [2] was 0.5 h. For the same compound, the “time of maximum PpIX fluorescence” value [2] was “about 6 hours”.

In the case of `CC(=O)N(O)CCCCCNC(=O)CCC(=O)N(O)CCCCCNC(=O)CCC(=O)N(O)CCCCCN` [DF, desferrioxamine mesylate], the “effect on production of ALA methylester-induced PpIX” value (normal skin of nude mice [9]; topical, with 20% ALA methylester cream, normal mouse skin) was “significantly enhanced; also recorded: significant effect in enhancing the production” and the “PpIX fluorescence in normal mouse skin after cream containing the agent alone” value (normal skin of nude mice [9]; topical) was “some fluorescence of PpIX”.

For `C[S+](C)[O-]` [DMSO, Dimethyl sulphoxide], the “PpIX fluorescence in normal mouse skin after cream containing the agent alone” value (normal skin of nude mice [9]; topical) was “did not show any fluorescence”.
